Measurements reported in PubChem BioAssay AID1259408 (Genetic Toxicology Data Bank (GENE-TOX), 2018).
Activity calls are given as the source filed them. No rule for the calls is given here.

System: GENE-TOX genotoxicity assays, various organisms and cells
Assay: GENE-TOX mutagenicity studies
Conditions: for call: Assay Type: In vivo carcinogenicity studies
[1] = Species/Cell Type: Nonhuman, Assay Type: Sister-chromatid exchange (SCE) in vitro, Assay Code: SC2+D, Dose Response: With dose response, Evaluation Type: Evaluation B (Post-1980)
[2] = Species/Cell Type: Salmonella typhimurium (one or more of the five standard strains: TA98, TA100, TA1535, TA1537, and TA1538), Assay Type: Histidine reverse gene mutation, Ames assay, Assay Code: SAL+*, Activation: With metabolic activation, Evaluation Type: Evaluation A (Pre-1980)
[3] = Species/Cell Type: Escherichia coli polA (W3119 vs P3478), Assay Type: Rec-assay, DNA effects (bacterial DNA repair), Assay Code: RE1+, Evaluation Type: Evaluation A (Pre-1980)
[4] = Species/Cell Type: Nonhuman, Assay Code: CCG+, Evaluation Type: Evaluation A (Pre-1980)
[5] = Species/Cell Type: Salmonella typhimurium (one or more of the five standard strains: TA98, TA100, TA1535, TA1537, and TA1538), Assay Type: Histidine reverse gene mutation, Ames assay, Assay Code: SAL+, Evaluation Type: Evaluation A (Pre-1980)
[6] = Species/Cell Type: Syrian hamster embryo (SHE) cells, Assay Type: Cell transformation, clonal assay, Assay Code: CTC+, Evaluation Type: Evaluation A (Pre-1980)
[7] = Species/Cell Type: Saccharomyces cerevisiae, Assay Type: Mitotic recombination or gene conversion, Assay Code: YEH-, Evaluation Type: Evaluation A (Pre-1980)
[8] = Species/Cell Type: Human lymphocytes, Assay Type: Sister-chromatid exchange (SCE) in vitro, Assay Code: SCLT, Evaluation Type: Evaluation B (Post-1980)
[9] = Species/Cell Type: Human, Assay Type: Sister-chromatid exchange (SCE) in vitro, Assay Code: SC1T, Evaluation Type: Evaluation B (Post-1980)
[10] = Species/Cell Type: Salmonella typhimurium (one or more of the five standard strains: TA98, TA100, TA1535, TA1537, and TA1538), Assay Type: Histidine reverse gene mutation, Ames assay, Assay Code: SALT, Evaluation Type: Evaluation A (Pre-1980)
[11] = Species/Cell Type: Drosophila melanogaster, Assay Type: Sex-linked recessive lethal gene mutation, Assay Code: SRL+, Evaluation Type: Evaluation A (Pre-1980)
[12] = Species/Cell Type: Human, Assay Type: Sister-chromatid exchange (SCE) in vitro, Assay Code: SC1+, Evaluation Type: Evaluation B (Post-1980)
[13] = Species/Cell Type: Drosophila melanogaster, Assay Type: Sex-linked recessive lethal gene mutation, Assay Code: SRLT, Evaluation Type: Evaluation A (Pre-1980)

Structure (SMILES): CC1C(c2ccccc2)OCCN1N=O (centres undefined)
- mutagenic call (Species/Cell Type: Salmonella typhimurium, Assay Type: Forward and reverse gene mutation, host-mediated assay, Assay Code: HMA-, Evaluation Type: Evaluation A (Pre-1980)): inactive; negative

Structure (SMILES): c1ccc2ncccc2c1
- mutagenic call [1]: active; positive
- mutagenic call (Species/Cell Type: Nonhuman, Assay Type: Sister-chromatid exchange (SCE) in vitro, Assay Code: SC2-, Evaluation Type: Evaluation A (Pre-1980)): inactive; negative
- mutagenic call [2]: active; positive

Structure (SMILES): [N-]=[N+]=CC(=O)OC[C@H](N)C(=O)O
- mutagenic call (Species/Cell Type: Escherichia coli WP2, Assay Type: Tryptophan reverse gene mutation, Assay Code: WP2+, Evaluation Type: Evaluation A (Pre-1980)): active; positive
- mutagenic call [3]: active; positive
- call [4]: active; positive
- mutagenic call [1]: active; positive
- mutagenic call [5]: active; positive
- mutagenic call [6]: active; positive

Structure (SMILES): CNc1ccc(N(CCO)CCO)cc1[N+](=O)[O-]
- mutagenic call (Species/Cell Type: Mammalian polychromatic erythrocytes, Assay Type: Micronucleus test, chromosome aberrations, Assay Code: MNTT, Evaluation Type: Evaluation B (Post-1980)): no conclusion
- call [4]: active; positive
- mutagenic call [1]: active; positive

Structure (SMILES): Cc1ccnc2ccccc12
- mutagenic call [2]: active; positive

Structure (SMILES): CC1(C)[C@H]2CC[C@]1(C)[C@H](O)C2
- mutagenic call [7]: inactive; negative
- mutagenic call (Species/Cell Type: Salmonella typhimurium (one or more of the five standard strains: TA98, TA100, TA1535, TA1537, and TA1538), Assay Type: Histidine reverse gene mutation, Ames assay, Assay Code: SAL-, Evaluation Type: Evaluation A (Pre-1980)): inactive; negative

Structure (SMILES): Cc1ncc(COP(=O)(O)O)c(C=O)c1O
- mutagenic call [8]: no conclusion
- mutagenic call [9]: no conclusion

Structure (SMILES): OCCN1CCN(C2Cc3cc(Cl)ccc3Sc3ccccc32)CC1 (centres undefined)
- mutagenic call (Species/Cell Type: Rodents, Sex: Male, Assay Type: Dominant lethal test, Assay Code: DLT-, Evaluation Type: Evaluation A (Pre-1980)): inactive; negative

Structure (SMILES): CN1CCN(CCCN2c3ccccc3Sc3ccc(C(F)(F)F)cc32)CC1
- mutagenic call (Species/Cell Type: Hordeum vulgare (barley), Assay Type: Chromosome aberrations, Assay Code: HOC+, Evaluation Type: Evaluation A (Pre-1980)): active; positive
- mutagenic call (Species/Cell Type: Mammalian polychromatic erythrocytes, Assay Type: Micronucleus test, chromosome aberrations, Assay Code: MNT+, Evaluation Type: Evaluation B (Post-1980)): active; positive

Structure (SMILES): Cc1ccc(S(=O)(=O)NC(=O)NN2CCCCCC2)cc1
- mutagenic call (Species/Cell Type: Nonhuman, Assay Type: Sister-chromatid exchange (SCE) in vivo, Assay Code: SC3T, Evaluation Type: Evaluation B (Post-1980)): no conclusion

Structure (SMILES): CC(=O)Nc1ccc(O)cc1
- mutagenic call (Species/Cell Type: Human lymphocytes, Assay Type: Sister-chromatid exchange (SCE) in vitro, Assay Code: SCL-, Evaluation Type: Evaluation B (Post-1980)): inactive; negative
- mutagenic call [10]: no conclusion

Structure (SMILES): CC(CO)OS(C)(=O)=O (centres undefined)
- mutagenic call (Species/Cell Type: Hordeum vulgare (barley), Assay Type: Chromosome aberrations, Assay Code: HOC+D, Dose Response: With dose response, Evaluation Type: Evaluation A (Pre-1980)): active; positive

Structure (SMILES): CC1CN1P(=O)(N(C)C)N(C)C (centres undefined)
- mutagenic call [11]: active; positive

Structure (SMILES): NC(=O)N1c2ccccc2[C@H](O)[C@@H](O)c2ccccc21
- mutagenic call (Species/Cell Type: Human lymphocytes, Assay Type: Sister-chromatid exchange (SCE) in vitro, Assay Code: SCL+, Evaluation Type: Evaluation B (Post-1980)): active; positive
- mutagenic call [12]: active; positive

Structure (SMILES): COP(=S)(OC)Oc1ccc(SC)c(C)c1
- mutagenic call (Species/Cell Type: Bacillus subtilis (H17 vs M45), Assay Type: Rec-assay, spot test, DNA effects (bacterial DNA repair), Assay Code: REWT, Evaluation Type: Evaluation A (Pre-1980)): no conclusion
- mutagenic call [13]: no conclusion
- mutagenic call (Species/Cell Type: Escherichia coli WP2 UVRA, Assay Type: Tryptophan reverse gene mutation, Assay Code: WPU-*, Activation: With metabolic activation, Evaluation Type: Evaluation A (Pre-1980)): inactive; negative
- mutagenic call (Species/Cell Type: Escherichia coli polA (W3119 vs P3478), Assay Type: Rec-assay, DNA effects (bacterial DNA repair), Assay Code: RE1T, Evaluation Type: Evaluation A (Pre-1980)): no conclusion
- mutagenic call (Species/Cell Type: Human diploid fibroblasts, Assay Type: Unscheduled DNA synthesis (UDS) in vitro, DNA effects, Assay Code: UDH-, Evaluation Type: Evaluation A (Pre-1980)): inactive; negative
- mutagenic call [9]: no conclusion
- mutagenic call (Species/Cell Type: Nonhuman, Assay Type: Sister-chromatid exchange (SCE) in vitro, Assay Code: SC2+D*, Activation: With metabolic activation, Dose Response: With dose response, Evaluation Type: Evaluation B (Post-1980)): active; positive
- mutagenic call [7]: inactive; negative

Structure (SMILES): ClC(Cl)C(Cl)Cl
- mutagenic call [3]: active; positive
- call (Species/Cell Type: Nonhuman, Assay Code: CCG+L, Evaluation Type: Evaluation A (Pre-1980)): active; positive
- mutagenic call (Species/Cell Type: Saccharomyces cerevisiae, Assay Type: Mitotic recombination or gene conversion, Assay Code: YEC+, Evaluation Type: Evaluation A (Pre-1980)): active; positive
- mutagenic call (Species/Cell Type: Saccharomyces cerevisiae, Assay Type: Mitotic recombination or gene conversion, Assay Code: YEH+, Evaluation Type: Evaluation A (Pre-1980)): active; positive
- mutagenic call (Species/Cell Type: Saccharomyces cerevisiae, Assay Type: Reverse gene mutation, Assay Code: YER+, Evaluation Type: Evaluation A (Pre-1980)): active; positive

Structure (SMILES): Nc1ccc([N+](=O)[O-])cc1N
- mutagenic call [11]: active; positive
- mutagenic call (Species/Cell Type: Fischer rat embryo (RLV/1706) cells, Assay Type: Cell transformation, viral enhanced, Assay Code: CTR+, Evaluation Type: Evaluation A (Pre-1980)): active; positive
- mutagenic call (Species/Cell Type: Human diploid fibroblasts, Assay Type: Unscheduled DNA synthesis (UDS) in vitro, DNA effects, Assay Code: UDHT, Evaluation Type: Evaluation A (Pre-1980)): no conclusion
- mutagenic call (Species/Cell Type: Mammalian polychromatic erythrocytes, Assay Type: Micronucleus test, chromosome aberrations, Assay Code: MNTT, Evaluation Type: Evaluation A (Pre-1980)): no conclusion
- mutagenic call (Species/Cell Type: Mouse (C3H/10T1/2) cells, Assay Type: Cell transformation, Assay Code: CTH+, Evaluation Type: Evaluation A (Pre-1980)): active; positive
- mutagenic call (Species/Cell Type: Mouse, Sex: Male, Assay Type: Sperm morphology, Assay Code: SPI-, Evaluation Type: Evaluation A (Pre-1980)): inactive; negative
- mutagenic call (Species/Cell Type: Neurospora crassa, Assay Type: Aneuploidy, chromosome aberrations, Assay Code: NEN-, Evaluation Type: Evaluation A (Pre-1980)): inactive; negative
- mutagenic call (Species/Cell Type: Nonhuman, Assay Type: Chromosome aberrations in vitro, Assay Code: CY&+D, Dose Response: With dose response, Evaluation Type: Evaluation A (Pre-1980)): active; positive
- call (Species/Cell Type: Nonhuman, Assay Code: CCG-, Evaluation Type: Evaluation A (Pre-1980)): inactive; negative
- mutagenic call (Species/Cell Type: Nonhuman, Assay Type: Sister-chromatid exchange (SCE) in vitro, Assay Code: SC2+D, Dose Response: With dose response, Evaluation Type: Evaluation A (Pre-1980)): active; positive
- mutagenic call (Species/Cell Type: Nonhuman, Sex: Male, Assay Type: Sister-chromatid exchange (SCE) in vivo, Assay Code: SC3TM, Evaluation Type: Evaluation B (Post-1980)): no conclusion
- mutagenic call (Species/Cell Type: Rodents, Sex: Male, Assay Type: Dominant lethal test, Assay Code: DLTT, Evaluation Type: Evaluation A (Pre-1980)): no conclusion
- mutagenic call (Species/Cell Type: Saccharomyces cerevisiae, Assay Type: Reverse gene mutation, Assay Code: YER-, Evaluation Type: Evaluation A (Pre-1980)): inactive; negative
- mutagenic call [5]: active; positive
- mutagenic call (Species/Cell Type: Salmonella typhimurium, Assay Type: Forward and reverse gene mutation, body fluid assay, Assay Code: BFU+, Evaluation Type: Evaluation A (Pre-1980)): active; positive
- mutagenic call [6]: active; positive

Structure (SMILES): CN(C)c1ccc(N=Nc2cccc(CCl)c2)cc1
- mutagenic call [13]: no conclusion

Structure (SMILES): c1cncc([C@@H]2CCCN2)c1
- mutagenic call (Species/Cell Type: Nonhuman, Assay Type: Sister-chromatid exchange (SCE) in vitro, Assay Code: SC2+, Evaluation Type: Evaluation B (Post-1980)): active; positive

Structure (SMILES): CC(=O)OC[C@H]1O[C@@H](Oc2cccc3c2C(=O)c2c(O)cccc2C3=O)[C@H](OC(C)=O)[C@@H](OC(C)=O)[C@@H]1OC(C)=O
- mutagenic call [2]: active; positive

Structure (SMILES): Nc1cc(S(=O)(=O)O)cc2c1C(=O)/C(=N/Nc1ccc(-c3ccc(N/N=C4/C(=O)c5c(N)cc(S(=O)(=O)O)cc5C=C4S(=O)(=O)O)cc3)cc1)C(S(=O)(=O)O)=C2
- call [4]: active; positive

Structure (SMILES): CCOP(=S)(OCC)SCSc1ccc(Cl)cc1
- mutagenic call [12]: active; positive

Structure (SMILES): CCC1=C(O)C(=O)CC1
- mutagenic call [8]: no conclusion
- mutagenic call [9]: no conclusion

Structure (SMILES): O=C(O)C1CCCCN1[N+](=O)[O-] (centres undefined)
- mutagenic call [10]: no conclusion

Structure (SMILES): CNc1nncc2ccccc12
- mutagenic call (Species/Cell Type: Human, Assay Type: Sister-chromatid exchange (SCE) in vitro, Assay Code: SC1+D, Dose Response: With dose response, Evaluation Type: Evaluation B (Post-1980)): active; positive
- mutagenic call (Species/Cell Type: Nonhuman, Assay Type: Sister-chromatid exchange (SCE) in vivo, Assay Code: SC3+, Evaluation Type: Evaluation B (Post-1980)): active; positive

Structure (SMILES): C=C=O
- mutagenic call [5]: active; positive
- mutagenic call (Species/Cell Type: Tradescantia species, Assay Type: Chromosome aberrations, Assay Code: TRC+, Evaluation Type: Evaluation A (Pre-1980)): active; positive
